Test results reported in patent publication US11986471B2, “Compounds and methods of use” (Tango Therapeutics, Inc., priority 2018, dated 2024).

Legend:
HAP1 MTAP-intact = test: SDMA in-cell western assay, HAP1 MTAP-intact cell line; assay type: cell-based; conditions: Homo sapiens
In short: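 HAP1 isogenic pair: endogenous MTAP vs MTAP-null. Readout SDMA by in-cell western; IC50 per line. Ratio ≥3 fold = MTAP-selective.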

PRMT5 [1] = biological target: T1, PRMT5 (Homo sapiens, UniProt O14744); test: PRMT5 IC50 assay in the presence of MTA as cofactor; assay type: biochemical; conditions: for IC50: PRMT5, MTA as cofactor
T1 construct: purchased Viva (custom protein)
In short: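 Three cofactor conditions are run: SAM-bound, MTA-bound and cofactor-free enzyme. IC50 is read from each; for the SAM and MTA arms it is divided by 1.5 and 13.5 respectively to give Ki.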

PRMT5 [2] = biological target: T1, PRMT5; test: PRMT5 IC50 assay in the presence of SAM as cofactor; assay type: biochemical
In short: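 Cofactor-free, SAM and MTA formats; IC50 μM; Ki = IC50/1.5 for SAM, IC50/13.5 for MTA.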

PRMT5 [3] = biological target: T1, PRMT5; test: PRMT5 IC50 assay with no cofactor; assay type: biochemical
In short: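 Each compound is tested on PRMT5 in the presence of SAM, of MTA, and without any cofactor. Ki values are then back-calculated using fixed factors of 1.5 (SAM) and 13.5 (MTA), and the two Ki values are compared as a ratio.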

HAP1 MTAP-deleted = test: SDMA in-cell western assay, HAP1 MTAP-deleted cell line; assay type: cell-based; conditions: for IC50: Homo sapiens, HAP1 MTAP-deleted cell line; for MTAP Intact/Deleted Ratio: IC50 ratio HAP1 MTAP-intact / HAP1 MTAP-deleted
In short: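 IC50 from SDMA in-cell western; HAP1 line lacking MTAP (null), paired isogenically with MTAP-intact HAP1 expressing endogenous MTAP.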

[4] = ratio between the Ki in the presence of SAM and the Ki in the presence of MTA
[5] = ratio between Ki in the presence of SAM and Ki in the presence of MTA

T1 sequence (O14744 whole entry): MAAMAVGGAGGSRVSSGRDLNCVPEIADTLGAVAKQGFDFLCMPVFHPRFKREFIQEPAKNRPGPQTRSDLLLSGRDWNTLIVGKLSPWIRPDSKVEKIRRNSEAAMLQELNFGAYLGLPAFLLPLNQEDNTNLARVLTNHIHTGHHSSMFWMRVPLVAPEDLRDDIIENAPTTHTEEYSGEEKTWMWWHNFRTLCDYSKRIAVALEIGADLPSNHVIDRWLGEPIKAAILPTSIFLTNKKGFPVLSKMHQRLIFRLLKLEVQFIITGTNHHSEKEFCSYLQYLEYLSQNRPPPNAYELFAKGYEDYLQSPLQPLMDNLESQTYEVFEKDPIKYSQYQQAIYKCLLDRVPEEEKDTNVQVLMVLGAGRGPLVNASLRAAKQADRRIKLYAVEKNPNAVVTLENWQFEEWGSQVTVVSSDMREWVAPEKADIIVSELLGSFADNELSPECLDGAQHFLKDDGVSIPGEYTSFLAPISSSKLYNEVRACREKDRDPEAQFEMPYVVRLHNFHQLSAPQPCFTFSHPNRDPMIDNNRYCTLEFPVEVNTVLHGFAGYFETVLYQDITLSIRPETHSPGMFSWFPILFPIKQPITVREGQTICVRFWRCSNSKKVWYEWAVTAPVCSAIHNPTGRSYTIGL
T1 sequence (Q9BQA1 whole entry partner): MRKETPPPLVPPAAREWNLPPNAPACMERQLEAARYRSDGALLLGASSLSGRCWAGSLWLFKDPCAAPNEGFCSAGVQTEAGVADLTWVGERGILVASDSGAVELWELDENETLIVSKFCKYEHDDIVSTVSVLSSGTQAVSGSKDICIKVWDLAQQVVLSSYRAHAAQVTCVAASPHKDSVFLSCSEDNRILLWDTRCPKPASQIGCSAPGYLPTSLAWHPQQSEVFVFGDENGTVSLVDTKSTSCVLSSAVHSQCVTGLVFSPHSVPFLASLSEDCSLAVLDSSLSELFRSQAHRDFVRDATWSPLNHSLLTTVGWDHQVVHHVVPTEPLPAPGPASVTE

SMILES	IC50 (HAP1 MTAP-intact)	IC50 (PRMT5 [1])	SAM/MTA Ratio (PRMT5 [1]; [4])	IC50 (PRMT5 [2])	IC50 (PRMT5 [3])	IC50 (HAP1 MTAP-deleted)	MTAP Intact/Deleted Ratio (HAP1 MTAP-deleted)	SAM/MTA Ratio (PRMT5 [1]; [5])	IC50 (PRMT5 [3]; read-out: No Co-factor IC50)
Cc1c(OCc2cnco2)ccc2c1CCN(C[C@@H](O)CNC(=O)c1ccnc(N[C@H]3C[C@@H](CO)C3)c1)C2 [Compound 487]	≥ 10000 nM	50 to 500 nM	A (a Ki ratio greater than or equal to 10 fold between the Ki in the presence of SAM and the Ki in the presence of MTA)	50 to 500 nM	≥ 5000 nM	≥ 10000 nM	C* (an IC50 ratio of less than 3 fold between the IC50 in the HAP1 MTAP-intact cell line and the HAP1 MTAP-deleted cell line)	–	–
Cc1c(OCc2ccnn2C)ccc2c1CCN(C[C@@H](O)CNC(=O)c1ccnc(NC3CCCC3)c1)C2 [Compound 277, (S)-2-(cyclopentylamino)-N-(2-hydroxy-3-(5-methyl-6-((1-methyl-1H-pyrazol-5-yl)methoxy)-3N-dihydroisoquinolin-2(1H)-yl)propyl)isonicotinamide]	≥ 10000 nM	500 to 5000 nM	–	500 to 5000 nM	–	≥ 10000 nM	C* (an IC50 ratio of less than 3 fold between the IC50 in the HAP1 MTAP-intact cell line and the HAP1 MTAP-deleted cell line)	A (a Ki ratio greater than or equal to 10 fold between the Ki in the presence of SAM and the Ki in the presence of MTA)	≥ 5000 nM
Cc1ncoc1COc1ccc2c(c1Cl)CCN(C[C@@H](O)CNC(=O)c1ccnc(NC3CCC3)c1)C2 [Compound 252, (S)—N-(3-(5-chloro-6-((4-methyloxazol-5-yl)methoxy)-3,4-dihydroisoquinolin-2(1H)-yl)-2-hydroxypropyl)-2-(cyclobutylamino)isonicotinamide]	≥ 10000 nM	50 to 500 nM	–	50 to 500 nM	–	1000 to 10000 nM	C* (an IC50 ratio of less than 3 fold between the IC50 in the HAP1 MTAP-intact cell line and the HAP1 MTAP-deleted cell line)	A (a Ki ratio greater than or equal to 10 fold between the Ki in the presence of SAM and the Ki in the presence of MTA)	≥ 5000 nM
CCN(C)c1nc(NC2COC2)cc(C(=O)NC[C@H](O)CN2CCc3c(ccc(OCc4ocnc4C)c3C)C2)n1 [Compound 477]	≥ 10000 nM	50 to 500 nM	A (a Ki ratio greater than or equal to 10 fold between the Ki in the presence of SAM and the Ki in the presence of MTA)	50 to 500 nM	≥ 5000 nM	1000 to 10000 nM	B* (an IC50 ratio greater than or equal to 3 fold but lower than 10 fold between the IC50 in the HAP1 MTAP-intact cell line and the HAP1 MTAP-deleted cell line)	–	–
Cc1ncoc1COc1ccc2c(c1)CCN(C[C@@H](O)CNC(=O)c1cccc(NC3CCC3)c1)C2 [Compound 283, (S)-3-(cyclobutylamino)-N-(2-hydroxy-3-(6-((4-methyloxazol-5-yl)methoxy)-3,4-dihydroisoquinolin-2(1H)-yl)propyl)benzamide]	< 1000 nM	500 to 5000 nM	–	500 to 5000 nM	–	< 1000 nM	C* (an IC50 ratio of less than 3 fold between the IC50 in the HAP1 MTAP-intact cell line and the HAP1 MTAP-deleted cell line)	A (a Ki ratio greater than or equal to 10 fold between the Ki in the presence of SAM and the Ki in the presence of MTA)	≥ 5000 nM
O=C(NC[C@H](O)CN1CCc2c(ccc(OCc3cnco3)c2Cl)C1)c1ccnc(NC2CCN(C(=O)C3CC3)CC2)c1 [Compound 366, (S)—N-(3-(5-chloro-6-(oxazol-5-ylmethoxy)-3N-dihydroisoquinolin-2(1H)-yl)-2-hydroxypropyl)-2-((1-(cyclopropanecarbonyl)piperidin-4-yl)amino)isonicotinamide]	≥ 10000 nM	50 to 500 nM	–	50 to 500 nM	–	1000 to 10000 nM	B* (an IC50 ratio greater than or equal to 3 fold but lower than 10 fold between the IC50 in the HAP1 MTAP-intact cell line and the HAP1 MTAP-deleted cell line)	A (a Ki ratio greater than or equal to 10 fold between the Ki in the presence of SAM and the Ki in the presence of MTA)	500 to 5000 nM
O=C(NC[C@H](O)CN1CCc2cc(OCc3cnco3)ccc2C1)c1ccc(OC2CCN(Cc3ccccc3)CC2)cc1 [Compound 291, (S)-4-((1-benzylpiperidin-4-yl)oxy)-N-(2-hydroxy-3-(6-(oxazol-5-ylmethoxy)-3,4-dihydroisoquinolin-2(1H)-yl)propyl)benzamide]	1000 to 10000 nM	50 to 500 nM	–	50 to 500 nM	–	1000 to 10000 nM	C* (an IC50 ratio of less than 3 fold between the IC50 in the HAP1 MTAP-intact cell line and the HAP1 MTAP-deleted cell line)	–	500 to 5000 nM
Cc1ncoc1COc1ccc2c(c1)CCN(C[C@@H](O)CNC(=O)c1cc(NC3COC3)nc(N3CCN(C(=O)C4CC4)CC3)n1)C2 [Compound 400, 2-(4-cyclopropanecarbonylpiperazin-1-yl)-N-[(2S)-2-hydroxy-3-{6-[(4-methyl-1,3-oxazol-5-yl)methoxy]-1,2,3,4-tetrahydroisoquinolin-2-yl}propyl]-6-[(oxetan-3-yl)amino]pyrimidine-4-carboxamide]	1000 to 10000 nM	50 to 500 nM	–	50 to 500 nM	–	< 1000 nM	B* (an IC50 ratio greater than or equal to 3 fold but lower than 10 fold between the IC50 in the HAP1 MTAP-intact cell line and the HAP1 MTAP-deleted cell line)	A (a Ki ratio greater than or equal to 10 fold between the Ki in the presence of SAM and the Ki in the presence of MTA)	500 to 5000 nM
O=C(NC[C@H](O)CN1CCc2c(ccc(OCc3cnco3)c2Cl)C1)c1cc(NC2COC2)nc(N2CCCCC2)n1 [Compound 327, (S)—N-(3-(5-chloro-6-(oxazol-5-ylmethoxy)-3N-dihydroisoquinolin-2(1H)-yl)-2-hydroxypropyl)-6-(oxetan-3-ylamino)-2-(piperidin-1-yl)pyrimidine-4-carboxamide]	≥ 10000 nM	50 to 500 nM	–	50 to 500 nM	–	1000 to 10000 nM	B* (an IC50 ratio greater than or equal to 3 fold but lower than 10 fold between the IC50 in the HAP1 MTAP-intact cell line and the HAP1 MTAP-deleted cell line)	A (a Ki ratio greater than or equal to 10 fold between the Ki in the presence of SAM and the Ki in the presence of MTA)	500 to 5000 nM
O=C(NC[C@H](O)CN1CCc2cc(OCc3cnco3)ccc2C1)c1cc(NC2CCC2)nc(N2CCNCC2)c1 [Compound 422]	1000 to 10000 nM	50 to 500 nM	–	50 to 500 nM	–	1000 to 10000 nM	C* (an IC50 ratio of less than 3 fold between the IC50 in the HAP1 MTAP-intact cell line and the HAP1 MTAP-deleted cell line)	A (a Ki ratio greater than or equal to 10 fold between the Ki in the presence of SAM and the Ki in the presence of MTA)	500 to 5000 nM
COc1ccc(C(=O)N2CCc3cc(C(=O)NC[C@H](O)CN4CCc5c(ccc(OCc6ocnc6C)c5C)C4)ccc3C2)cc1 [Compound 533, N-[(2S)-2-hydroxy-3-{5-methyl-6-[(4-methyl-1,3-oxazol-5-yl)methoxy]-1,2,3,4-tetrahydroisoquinolin-2-yl}propyl]-2-(4-methoxybenzoyl)-1,2,3,4-tetrahydroisoquinoline-6-carboxamide]	≥ 10000 nM	50 to 500 nM	A (a Ki ratio greater than or equal to 10 fold between the Ki in the presence of SAM and the Ki in the presence of MTA)	50 to 500 nM	≥ 5000 nM	1000 to 10000 nM	C* (an IC50 ratio of less than 3 fold between the IC50 in the HAP1 MTAP-intact cell line and the HAP1 MTAP-deleted cell line)	–	–
CC(=O)N1CCC(Nc2cc(C(=O)NC[C@H](O)CN3CCc4nc(OCc5ocnc5C)ccc4C3)ccn2)CC1 [Compound 617, 2-[(1-acetyl-4-piperidyl)amino]-N-[(2S)-2-hydroxy-3-[2-[(4-methyloxazol-5-yl)methoxy]-7,8-dihydro-5H-1,6-naphthyridin-6-yl]propyl]pyridine-4-carboxamide]	≥ 10000 nM	50 to 500 nM	–	50 to 500 nM	500 to 5000 nM	1000 to 10000 nM	C* (an IC50 ratio of less than 3 fold between the IC50 in the HAP1 MTAP-intact cell line and the HAP1 MTAP-deleted cell line)	–	–
CC(C)N1CCN(c2nc(NC3COC3)cc(C(=O)NC[C@H](O)CN3CCc4cc(OCc5cnco5)ccc4C3)n2)CC1 [Compound 296, (S)—N-(2-hydroxy-3-(6-(oxazol-5-ylmethoxy)-3N-dihydroisoquinolin-2(1H)-yl)propyl)-2-(4-isopropylpiperazin-1-yl)-6-(oxetan-3-ylamino)pyrimidine-4-carboxamide]	≥ 10000 nM	50 to 500 nM	–	50 to 500 nM	–	1000 to 10000 nM	C* (an IC50 ratio of less than 3 fold between the IC50 in the HAP1 MTAP-intact cell line and the HAP1 MTAP-deleted cell line)	A (a Ki ratio greater than or equal to 10 fold between the Ki in the presence of SAM and the Ki in the presence of MTA)	500 to 5000 nM
